Tests used:
Experiment in all cases: Eurofins kinase panel
Type in all cases: biochemical
Conditions in all cases: read-out: Inhibition rate (%)
PKD2(h) = molecular target: T1, PKD2(h) (Homo sapiens, UniProt Q9BZL6)
T1 construct: purchased Eurofins (KinaseProfiler)
T1 sequence (Q9BZL6 1-878): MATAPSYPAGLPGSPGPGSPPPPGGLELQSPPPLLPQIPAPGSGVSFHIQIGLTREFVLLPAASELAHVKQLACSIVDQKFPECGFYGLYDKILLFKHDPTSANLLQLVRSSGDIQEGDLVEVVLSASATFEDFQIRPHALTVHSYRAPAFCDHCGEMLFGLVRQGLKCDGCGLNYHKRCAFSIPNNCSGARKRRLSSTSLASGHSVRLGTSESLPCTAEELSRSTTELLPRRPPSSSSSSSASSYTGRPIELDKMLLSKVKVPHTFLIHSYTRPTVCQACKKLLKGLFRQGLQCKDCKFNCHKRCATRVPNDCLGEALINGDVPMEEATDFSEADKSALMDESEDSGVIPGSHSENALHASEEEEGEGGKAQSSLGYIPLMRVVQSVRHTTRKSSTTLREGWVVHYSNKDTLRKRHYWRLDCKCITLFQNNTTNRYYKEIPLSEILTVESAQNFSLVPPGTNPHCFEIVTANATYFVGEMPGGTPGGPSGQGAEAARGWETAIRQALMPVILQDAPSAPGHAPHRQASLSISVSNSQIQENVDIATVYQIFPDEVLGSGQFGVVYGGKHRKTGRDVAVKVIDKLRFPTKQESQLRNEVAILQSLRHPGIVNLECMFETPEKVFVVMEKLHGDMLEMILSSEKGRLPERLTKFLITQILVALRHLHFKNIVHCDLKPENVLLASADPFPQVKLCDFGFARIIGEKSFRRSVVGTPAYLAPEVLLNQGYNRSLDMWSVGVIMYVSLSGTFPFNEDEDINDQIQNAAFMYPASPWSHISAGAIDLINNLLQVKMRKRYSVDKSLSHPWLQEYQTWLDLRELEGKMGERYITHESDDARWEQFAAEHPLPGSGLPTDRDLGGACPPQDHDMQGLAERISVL

CLIK1(h) = molecular target: T2, CLIK1(h) (Homo sapiens, UniProt Q8TDR2)
T2 construct: purchased Eurofins (KinaseProfiler)
T2 sequence (Q8TDR2 whole entry): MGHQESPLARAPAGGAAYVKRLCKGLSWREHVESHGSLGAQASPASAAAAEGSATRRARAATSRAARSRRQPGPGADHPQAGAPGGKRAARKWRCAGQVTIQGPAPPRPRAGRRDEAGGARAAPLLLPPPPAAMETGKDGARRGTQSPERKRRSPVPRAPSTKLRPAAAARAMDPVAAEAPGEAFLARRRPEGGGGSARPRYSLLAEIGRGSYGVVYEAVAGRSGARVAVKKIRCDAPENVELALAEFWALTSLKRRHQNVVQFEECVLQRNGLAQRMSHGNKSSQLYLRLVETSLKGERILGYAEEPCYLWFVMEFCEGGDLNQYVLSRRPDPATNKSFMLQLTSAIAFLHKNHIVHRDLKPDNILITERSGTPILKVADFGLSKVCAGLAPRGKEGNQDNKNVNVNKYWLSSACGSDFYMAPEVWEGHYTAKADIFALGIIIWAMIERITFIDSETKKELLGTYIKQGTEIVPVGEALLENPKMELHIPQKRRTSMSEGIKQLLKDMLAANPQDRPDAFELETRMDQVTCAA

A-Raf(h) = molecular target: T3, A-Raf(h) (Homo sapiens, UniProt P10398)
T3 construct: purchased Eurofins (KinaseProfiler)
T3 sequence (P10398 1-606): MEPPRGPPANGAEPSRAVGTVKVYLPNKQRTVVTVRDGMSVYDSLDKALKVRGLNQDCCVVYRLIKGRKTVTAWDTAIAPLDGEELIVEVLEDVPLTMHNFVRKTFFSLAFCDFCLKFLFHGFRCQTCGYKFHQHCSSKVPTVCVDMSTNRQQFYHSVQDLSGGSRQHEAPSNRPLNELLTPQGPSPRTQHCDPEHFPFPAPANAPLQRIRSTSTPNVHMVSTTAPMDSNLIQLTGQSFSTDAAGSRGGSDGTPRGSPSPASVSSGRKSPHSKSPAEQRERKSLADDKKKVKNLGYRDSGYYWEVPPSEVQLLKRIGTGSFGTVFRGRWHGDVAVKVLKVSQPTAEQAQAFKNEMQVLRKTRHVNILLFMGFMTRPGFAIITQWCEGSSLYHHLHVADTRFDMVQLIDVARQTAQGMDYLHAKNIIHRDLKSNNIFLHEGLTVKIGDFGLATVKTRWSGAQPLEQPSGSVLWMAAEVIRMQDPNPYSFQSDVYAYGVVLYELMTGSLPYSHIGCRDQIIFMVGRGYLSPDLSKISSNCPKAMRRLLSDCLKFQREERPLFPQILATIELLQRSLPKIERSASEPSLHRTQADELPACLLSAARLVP

Rsk1(r) = molecular target: T4, Rsk1(r) (Rattus norvegicus, UniProt Q63531)
T4 construct: purchased Eurofins (KinaseProfiler)
T4 sequence (Q63531 whole entry): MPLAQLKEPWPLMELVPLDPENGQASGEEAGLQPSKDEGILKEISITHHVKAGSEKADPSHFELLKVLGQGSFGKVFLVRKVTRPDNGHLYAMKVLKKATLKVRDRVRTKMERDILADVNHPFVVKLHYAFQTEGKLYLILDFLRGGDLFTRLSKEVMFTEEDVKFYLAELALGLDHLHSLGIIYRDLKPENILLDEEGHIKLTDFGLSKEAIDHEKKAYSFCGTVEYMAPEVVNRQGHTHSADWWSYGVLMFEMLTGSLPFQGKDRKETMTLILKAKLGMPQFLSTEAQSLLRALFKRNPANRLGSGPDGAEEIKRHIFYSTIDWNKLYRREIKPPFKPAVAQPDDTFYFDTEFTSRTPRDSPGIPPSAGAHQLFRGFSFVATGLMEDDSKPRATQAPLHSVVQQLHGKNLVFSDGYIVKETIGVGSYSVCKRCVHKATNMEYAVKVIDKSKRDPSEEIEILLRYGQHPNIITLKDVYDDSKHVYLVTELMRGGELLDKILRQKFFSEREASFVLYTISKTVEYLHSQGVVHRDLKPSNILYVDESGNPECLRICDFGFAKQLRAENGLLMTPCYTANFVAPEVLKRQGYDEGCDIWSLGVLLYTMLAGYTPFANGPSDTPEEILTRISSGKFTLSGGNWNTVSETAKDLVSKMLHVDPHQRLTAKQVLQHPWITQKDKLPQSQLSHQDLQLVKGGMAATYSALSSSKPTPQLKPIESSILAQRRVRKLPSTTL

[1] = molecular target: T5, PI3 Kinase (p110α(E545K)/p85α)(h) (Homo sapiens, UniProt P42336, E545K)
T5 construct: purchased Eurofins (KinaseProfiler)
T5 sequence (P42336 whole entry E545K): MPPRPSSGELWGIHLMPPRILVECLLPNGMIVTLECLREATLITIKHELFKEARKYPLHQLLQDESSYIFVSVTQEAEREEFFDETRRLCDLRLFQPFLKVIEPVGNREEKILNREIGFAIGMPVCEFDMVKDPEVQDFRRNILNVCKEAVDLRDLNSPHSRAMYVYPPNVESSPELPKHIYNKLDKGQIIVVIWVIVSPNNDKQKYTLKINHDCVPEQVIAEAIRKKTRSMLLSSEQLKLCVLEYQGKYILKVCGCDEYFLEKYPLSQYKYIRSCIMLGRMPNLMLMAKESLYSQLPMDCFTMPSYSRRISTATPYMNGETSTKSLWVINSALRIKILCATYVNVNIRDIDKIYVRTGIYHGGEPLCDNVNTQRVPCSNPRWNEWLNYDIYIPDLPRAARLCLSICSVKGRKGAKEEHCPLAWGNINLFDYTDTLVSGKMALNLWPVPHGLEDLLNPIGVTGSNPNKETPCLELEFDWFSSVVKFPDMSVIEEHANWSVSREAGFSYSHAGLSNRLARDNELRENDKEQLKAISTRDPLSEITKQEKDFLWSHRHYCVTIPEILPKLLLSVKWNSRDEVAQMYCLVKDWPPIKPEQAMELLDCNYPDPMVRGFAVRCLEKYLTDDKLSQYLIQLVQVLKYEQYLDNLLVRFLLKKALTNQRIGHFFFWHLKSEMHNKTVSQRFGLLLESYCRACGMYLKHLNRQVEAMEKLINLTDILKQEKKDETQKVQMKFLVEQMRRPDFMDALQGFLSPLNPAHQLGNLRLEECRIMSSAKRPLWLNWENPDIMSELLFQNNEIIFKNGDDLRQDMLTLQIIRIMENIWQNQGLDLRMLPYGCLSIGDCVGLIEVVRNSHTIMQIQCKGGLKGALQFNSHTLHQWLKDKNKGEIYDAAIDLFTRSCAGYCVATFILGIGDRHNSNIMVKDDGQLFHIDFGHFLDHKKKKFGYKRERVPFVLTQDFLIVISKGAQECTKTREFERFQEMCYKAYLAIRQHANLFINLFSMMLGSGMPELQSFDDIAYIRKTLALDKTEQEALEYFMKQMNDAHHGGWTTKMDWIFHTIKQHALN
T5 sequence (P27986 whole entry partner): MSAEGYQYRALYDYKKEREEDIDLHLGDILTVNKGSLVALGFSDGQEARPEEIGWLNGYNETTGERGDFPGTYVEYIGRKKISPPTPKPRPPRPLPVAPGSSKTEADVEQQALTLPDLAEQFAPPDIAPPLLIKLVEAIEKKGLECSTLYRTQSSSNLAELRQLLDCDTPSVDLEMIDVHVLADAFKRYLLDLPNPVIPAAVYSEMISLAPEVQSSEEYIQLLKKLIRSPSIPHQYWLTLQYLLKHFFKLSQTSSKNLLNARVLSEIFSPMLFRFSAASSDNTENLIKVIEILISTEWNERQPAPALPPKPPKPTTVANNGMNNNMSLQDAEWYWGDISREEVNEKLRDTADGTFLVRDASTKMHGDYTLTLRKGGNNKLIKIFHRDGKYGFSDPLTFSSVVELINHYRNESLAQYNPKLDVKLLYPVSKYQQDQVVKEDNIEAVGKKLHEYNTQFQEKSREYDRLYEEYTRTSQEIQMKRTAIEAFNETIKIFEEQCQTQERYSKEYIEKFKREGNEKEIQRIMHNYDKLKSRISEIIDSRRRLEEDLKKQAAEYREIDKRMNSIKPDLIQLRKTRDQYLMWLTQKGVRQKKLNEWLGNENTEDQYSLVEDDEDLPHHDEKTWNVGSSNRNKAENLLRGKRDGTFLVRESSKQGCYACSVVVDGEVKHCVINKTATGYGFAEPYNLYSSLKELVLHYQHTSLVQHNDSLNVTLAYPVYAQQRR

CSK(h) = molecular target: T6, CSK(h) (Homo sapiens, UniProt P41240)
T6 construct: purchased Eurofins (KinaseProfiler)
T6 sequence (P41240 whole entry): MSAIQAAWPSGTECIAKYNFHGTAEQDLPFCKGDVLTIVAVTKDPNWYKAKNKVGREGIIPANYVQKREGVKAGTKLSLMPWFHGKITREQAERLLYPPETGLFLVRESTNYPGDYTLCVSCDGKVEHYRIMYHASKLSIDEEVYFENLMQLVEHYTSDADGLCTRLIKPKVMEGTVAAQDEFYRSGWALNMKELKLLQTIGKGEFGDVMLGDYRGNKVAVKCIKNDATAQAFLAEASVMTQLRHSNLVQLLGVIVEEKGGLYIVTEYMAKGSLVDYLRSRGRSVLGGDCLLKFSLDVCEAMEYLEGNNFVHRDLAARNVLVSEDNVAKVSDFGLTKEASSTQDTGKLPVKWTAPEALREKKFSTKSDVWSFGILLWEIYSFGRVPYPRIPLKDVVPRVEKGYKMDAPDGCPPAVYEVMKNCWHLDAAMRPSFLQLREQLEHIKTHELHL

NEK6(h) = molecular target: T7, NEK6(h) (Homo sapiens, UniProt Q9HC98)
T7 construct: purchased Eurofins (KinaseProfiler)
T7 sequence (Q9HC98 whole entry): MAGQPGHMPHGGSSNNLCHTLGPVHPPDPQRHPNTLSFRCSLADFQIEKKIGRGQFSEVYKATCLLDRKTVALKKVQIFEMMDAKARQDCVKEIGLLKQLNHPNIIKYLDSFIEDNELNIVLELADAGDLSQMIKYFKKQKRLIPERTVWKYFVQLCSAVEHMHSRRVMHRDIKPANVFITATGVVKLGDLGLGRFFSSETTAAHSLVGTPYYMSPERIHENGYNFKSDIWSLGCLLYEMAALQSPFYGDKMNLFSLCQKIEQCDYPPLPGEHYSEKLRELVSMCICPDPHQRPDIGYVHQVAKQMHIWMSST

PDGFRα(D842V)(h) = molecular target: T8, PDGFRα(D842V)(h) (Homo sapiens, UniProt P16234, D842V)
T8 construct: purchased Eurofins (KinaseProfiler)
T8 sequence (P16234 24-1089 D842V): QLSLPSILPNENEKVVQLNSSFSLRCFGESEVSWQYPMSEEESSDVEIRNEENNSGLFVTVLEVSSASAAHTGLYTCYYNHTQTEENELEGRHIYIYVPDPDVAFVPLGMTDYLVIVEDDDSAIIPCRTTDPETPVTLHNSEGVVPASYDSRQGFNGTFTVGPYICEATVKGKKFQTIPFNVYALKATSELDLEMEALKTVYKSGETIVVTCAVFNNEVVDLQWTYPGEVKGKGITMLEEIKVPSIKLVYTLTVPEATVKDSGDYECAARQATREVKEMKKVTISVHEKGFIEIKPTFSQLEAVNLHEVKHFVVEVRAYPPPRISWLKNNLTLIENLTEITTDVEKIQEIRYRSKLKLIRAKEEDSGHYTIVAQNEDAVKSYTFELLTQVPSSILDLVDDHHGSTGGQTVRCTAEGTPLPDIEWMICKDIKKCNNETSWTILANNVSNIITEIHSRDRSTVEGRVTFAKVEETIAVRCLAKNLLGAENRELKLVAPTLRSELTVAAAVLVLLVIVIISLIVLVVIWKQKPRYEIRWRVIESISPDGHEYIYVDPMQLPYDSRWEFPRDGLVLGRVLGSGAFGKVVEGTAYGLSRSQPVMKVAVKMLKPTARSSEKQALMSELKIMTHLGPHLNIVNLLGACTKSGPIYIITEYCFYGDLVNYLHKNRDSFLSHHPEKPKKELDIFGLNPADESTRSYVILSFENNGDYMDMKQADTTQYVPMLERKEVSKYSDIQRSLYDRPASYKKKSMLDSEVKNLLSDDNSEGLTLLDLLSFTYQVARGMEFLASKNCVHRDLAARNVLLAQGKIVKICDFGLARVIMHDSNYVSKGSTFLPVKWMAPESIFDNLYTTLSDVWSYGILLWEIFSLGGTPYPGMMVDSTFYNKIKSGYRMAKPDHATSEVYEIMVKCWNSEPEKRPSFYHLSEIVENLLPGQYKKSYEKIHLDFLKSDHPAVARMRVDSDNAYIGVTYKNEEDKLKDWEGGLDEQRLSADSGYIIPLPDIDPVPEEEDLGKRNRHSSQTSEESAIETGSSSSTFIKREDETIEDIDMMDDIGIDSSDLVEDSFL

## COc1cc(OC)c(Cl)c(-c2ccc3c(NC(=O)c4ccc(N5CCNC(C)(C)C5)cc4)n[nH]c3n2)c1Cl [3D185]
PKD2(h); 10 nM
  inhibition at 0.01 µM: 7%
PKD2(h); 100 nM
  inhibition at 0.1 µM: -4%
PKD2(h); 1000 nM
  inhibition at 1 µM: 3%
CLIK1(h); 10 nM
  inhibition at 0.01 µM: 0%
CLIK1(h); 100 nM
  inhibition at 0.1 µM: -1%
CLIK1(h); 1000 nM
  inhibition at 1 µM: 12%
A-Raf(h); 10 nM
  inhibition at 0.01 µM: -7%
A-Raf(h); 100 nM
  inhibition at 0.1 µM: -7%
A-Raf(h); 1000 nM
  inhibition at 1 µM: -4%
Rsk1(r); 10 nM
  inhibition at 0.01 µM: -17%
Rsk1(r); 100 nM
  inhibition at 0.1 µM: 8%
Rsk1(r); 1000 nM
  inhibition at 1 µM: 30%
[1]; 10 nM
  inhibition at 0.01 µM: -2%
[1]; 100 nM
  inhibition at 0.1 µM: -2%
[1]; 1000 nM
  inhibition at 1 µM: 2%
CSK(h); 10 nM
  inhibition at 0.01 µM: 8%
CSK(h); 100 nM
  inhibition at 0.1 µM: 23%
CSK(h); 1000 nM
  inhibition at 1 µM: 63%
NEK6(h); 10 nM
  inhibition at 0.01 µM: -7%
NEK6(h); 100 nM
  inhibition at 0.1 µM: 4%
NEK6(h); 1000 nM
  inhibition at 1 µM: 2%
PDGFRα(D842V)(h); 10 nM
  inhibition at 0.01 µM: -2%
PDGFRα(D842V)(h); 100 nM
  inhibition at 0.1 µM: 5%
PDGFRα(D842V)(h); 1000 nM
  inhibition at 1 µM: 9%

Reference: publication PMC6704710, “Preclinical evaluation of 3D185, a novel potent inhibitor of FGFR1/2/3 and CSF-1R, in FGFR-dependent and macrophage-dominant cancer models” (Journal of Experimental & Clinical Cancer Research : CR, 2019)
